Test results reported in patent US11667656B2, “Crystalline forms of Tenofovir alafenamide” (Apotex Inc., priority 2021, dated 2023).
Where a name gives a salt, the structure may show the parent alone.

Experiments:
[1] = Wood apparatus, bath 37° C., 900 mL distilled water, 50 rpm, compressed 200-400 mg samples
Description: Intrinsic dissolution rate (IDR) measurements were performed using a Wood apparatus (Pharma Test PT-DT8 instrument) having a bath temperature of 37° C. Samples were prepared by compressing 200-400 mg samples at 1.5 metric tons for 1 minute. A dissolution medium consisting of 900 mL distilled water, and rotation speed of 50 rpm, was used for each experiment.

[2] = reported; cited from earlier work
[3] = CDER review, NDA 207561; cited from earlier work
[4] = rats; in comparison to tenofovir alafenamide hemifumarate; CN 105237571 B; cited from earlier work

In the case of `CC(C)OC(=O)[C@H](C)N[P@](=O)(CO[C@H](C)Cn1cnc2c(N)ncnc21)Oc1ccccc1` [Tenofovir alafenamide fumarate (1:1), Tenofovir alafenamide fumarate], the “Intrinsic Dissolution Rate” value [1] is reported as 0.87 mg min^−1 cm^−2.

In the case of `CC(C)OC(=O)[C@H](C)N[P@](=O)(CO[C@H](C)Cn1cnc2c(N)ncnc21)Oc1ccccc1` [tenofovir alafenamide, L-alanine, N—[(S)-[[(1 R)-2-(6-amino-9H-purin-9-yl)-1-methylethoxy]methyl]phenoxyphosphinyl]-, 1-methylethyl ester], the bioavailability [2] is given as “low”.

In the case of “Tenofovir alafenamide succinate [Tenofovir alafenamide succinate (1:1)]”, the “Intrinsic Dissolution Rate” value [1] is reported as 0.67 mg min^−1 cm^−2.

For tenofovir alafenamide hemifumarate, the “Biopharmaceutics Classification System (BCS) class” value [3] is given as “Class III” and the solubility [3] is given as “high”.

For tenofovir alafenamide hemisuccinate, the “absorption (AUC)” value [4] is given as “higher” and the “maximum plasma concentration (Cmax)” value [4] is given as “higher”.
